Data taken from the NIST ThermoML archive (doi:10.1016/j.jct.2016.03.026).

Experiment: xn = mol fraction of the nth substance listed
Settings: 273.15 K, Fluid (supercritical or subcritical phases), x1 = 0.97; for mass density: Vibrating tube method

O=C=O [carbon dioxide] + CO
Settings	mass density [kg/m3]
8000 kPa	962.72
8025 kPa	962.8
8050 kPa	962.97
8075 kPa	963.13
8100 kPa	963.21
8125 kPa	963.38
8150 kPa	963.54
8175 kPa	963.7
8200 kPa	963.78
8225 kPa	963.95
8250 kPa	964.11
8275 kPa	964.23
8300 kPa	964.35
8325 kPa	964.52
8350 kPa	964.68
8375 kPa	964.76
8400 kPa	964.93
8425 kPa	965.04
8450 kPa	965.19
8475 kPa	965.34
8500 kPa	965.5
8525 kPa	965.6
8550 kPa	965.74
8575 kPa	965.91
8600 kPa	966
8625 kPa	966.15
8650 kPa	966.32
8675 kPa	966.46
8700 kPa	966.56
8725 kPa	966.72
8750 kPa	966.89
8775 kPa	966.97
8800 kPa	967.13
8825 kPa	967.3
8850 kPa	967.38
8875 kPa	967.54
8900 kPa	967.71
8925 kPa	967.86
8950 kPa	967.95
8975 kPa	968.12
9000 kPa	968.28
9025 kPa	968.36
9050 kPa	968.52
9075 kPa	968.69
9100 kPa	968.77
9125 kPa	968.93
9150 kPa	969.1
9175 kPa	969.18
9200 kPa	969.34
9225 kPa	969.51
9250 kPa	969.64
9275 kPa	969.75
9300 kPa	969.92
9325 kPa	970
9350 kPa	970.16
9375 kPa	970.32
9400 kPa	970.45
9425 kPa	970.57
9450 kPa	970.67
9475 kPa	970.81
9500 kPa	970.97
9525 kPa	971.14
9550 kPa	971.22
9575 kPa	971.39
9600 kPa	971.55
9625 kPa	971.63
9650 kPa	971.74
9675 kPa	971.88
9700 kPa	972.04
9725 kPa	972.2
9750 kPa	972.29
9775 kPa	972.43
9800 kPa	972.53
9825 kPa	972.69
9850 kPa	972.82
9875 kPa	972.94
9900 kPa	973.1
9925 kPa	973.18
9950 kPa	973.35
9975 kPa	973.43
10000 kPa	973.59
10025 kPa	973.69
10050 kPa	973.84
10075 kPa	973.99
10100 kPa	974.08
10125 kPa	974.24
10150 kPa	974.34
10175 kPa	974.49
10200 kPa	974.57
10225 kPa	974.73
10250 kPa	974.82
10275 kPa	974.98
10300 kPa	975.11
10325 kPa	975.22
10350 kPa	975.36
10375 kPa	975.47
10400 kPa	975.63
10425 kPa	975.71
10450 kPa	975.88
10475 kPa	975.96
10500 kPa	976.12
10525 kPa	976.2
10550 kPa	976.37
10575 kPa	976.45
10600 kPa	976.61
10625 kPa	976.69
10650 kPa	976.86
10675 kPa	976.94
10700 kPa	977.1
10725 kPa	977.18
10750 kPa	977.35
10775 kPa	977.48
10800 kPa	977.59
10825 kPa	977.76
10850 kPa	977.84
10875 kPa	978
10900 kPa	978.08
10925 kPa	978.2
10950 kPa	978.33
10975 kPa	978.49
11000 kPa	978.57
11025 kPa	978.7
11050 kPa	978.82
11075 kPa	978.97
11100 kPa	979.06
11125 kPa	979.16
11150 kPa	979.3
11175 kPa	979.46
11200 kPa	979.55
11225 kPa	979.71
11250 kPa	979.8
11275 kPa	979.94
11300 kPa	980.04
11325 kPa	980.16
11350 kPa	980.29
11375 kPa	980.39
11400 kPa	980.53
11425 kPa	980.69
11450 kPa	980.78
11475 kPa	980.89
11500 kPa	981.02
11525 kPa	981.13
11550 kPa	981.26
11575 kPa	981.37
11600 kPa	981.51
11625 kPa	981.62
11650 kPa	981.75
11675 kPa	981.86
11700 kPa	982
11725 kPa	982.08
11750 kPa	982.24
11775 kPa	982.36
11800 kPa	982.49
11825 kPa	982.57
11850 kPa	982.74
11875 kPa	982.81
11900 kPa	982.98
11925 kPa	983.06
11950 kPa	983.22
11975 kPa	983.3
12000 kPa	983.47
12025 kPa	983.55
12050 kPa	983.69
12075 kPa	983.79
12100 kPa	983.94
12125 kPa	984.04
12150 kPa	984.12
12175 kPa	984.29
12200 kPa	984.37
12225 kPa	984.53
12250 kPa	984.61
12275 kPa	984.74
12300 kPa	984.86
12325 kPa	984.94
12350 kPa	985.1
12375 kPa	985.18
12400 kPa	985.35
12425 kPa	985.43
12450 kPa	985.59
12475 kPa	985.67
12500 kPa	985.78
12525 kPa	985.92
12550 kPa	986
12575 kPa	986.16
12600 kPa	986.24
12625 kPa	986.39
12650 kPa	986.49
12675 kPa	986.57
12700 kPa	986.65
12725 kPa	986.81
12750 kPa	986.89
12775 kPa	987.06
12800 kPa	987.14
12825 kPa	987.27
12850 kPa	987.38
12875 kPa	987.47
12900 kPa	987.63
12925 kPa	987.71
12950 kPa	987.8
12975 kPa	987.96
13000 kPa	988.04
13025 kPa	988.15
13050 kPa	988.28
13075 kPa	988.39
13100 kPa	988.53
13125 kPa	988.61
13150 kPa	988.76
13175 kPa	988.85
13200 kPa	988.93
13225 kPa	989.1
13250 kPa	989.18
13275 kPa	989.28
13300 kPa	989.42
13325 kPa	989.5
13350 kPa	989.67
13375 kPa	989.75
13400 kPa	989.83
13425 kPa	989.98
13450 kPa	990.07
13475 kPa	990.16
13500 kPa	990.32
13525 kPa	990.4
13550 kPa	990.48
13575 kPa	990.65
13600 kPa	990.73
13625 kPa	990.86
13650 kPa	990.97
13675 kPa	991.05
13700 kPa	991.22
13725 kPa	991.3
13750 kPa	991.4
13775 kPa	991.51
13800 kPa	991.62
13825 kPa	991.75
13850 kPa	991.87
13875 kPa	991.95
13900 kPa	992.09
13925 kPa	992.19
13950 kPa	992.27
13975 kPa	992.38
14000 kPa	992.52
14025 kPa	992.6

Settings	speed of sound [m/s]
10000 kPa, Frequency=5 MHz, Pulse-echo method	634.7
